# Assay results as given in patent US10568819B2, “Skin enhancing compositions and methods” (Sytheon Limited, priority 2016, dated 2020).
# Where two headings read alike, the source gives them in different places.
# Tests used:
# [1] = tested on: Fibroblasts; test: UVA- and UVB-induced formation of immediate CPDs (iCPDs) in fibroblasts; format: cell-based; conditions: 25 μg/ml
# Experimental: (§1) Given the significance of CPDs in skin aging and damage, a study was undertaken to determine whether compounds of the present invention have the ability to directly protect the genome of skin cells from the mutagenic effect of UV light as evidenced by CPDs inhibition. The study was conducted in accordance with the method described by Mitchell et. al. [Mitchell, D L, The relative cytotoxicity of (6-4) photoproducts and cyclobutane dimers in mammalian cells. Photochem Photobiol, 48(1):51-57, 1988)] pursuant to which UVA- and UVB-induced formation of immediate CPDs (iCPDs) were determined.
# [2] = tested on: Keratinocytes; test: UVA- and UVB-induced formation of immediate CPDs (iCPDs) in keratinocytes; format: cell-based
# Experimental: as §1
# [3] = tested on: Keratinocyte; test: UVA-induced delayed formation of CPDs (dCPDs) in keratinocytes; format: cell-based; conditions: 25 μg/ml
# Experimental: (§2) A second study was carried out, similar to the first, except that this time the analysis was in assessing the efficacy, if any, of the presently taught aryl alkanones in reducing UVA-induced delayed formation of CPDs (dCPDs).
# [4] = tested on: ϕX-174 RF bacteriophage supercoiled DNA; test: UVA/AGE-albumin-induced DNA strand breaks (QPES); format: biochemical
# Experimental: A study was undertaken to determine whether the aryl alkanones of the present invention have the ability to reduce photooxidative stress by physical Quencher of Photo-excited States (QPES) mechanism under UV light employing the method of Wondarak et al, (J Invest Dermatol, 119:489, 2002). Briefly, 100 ng (experiment 1) or 200 ng (experiment 2) of ϕX-174 RF bacteriophage supercoiled DNA was irradiated in the presence of […] of filtered glycated bovine serum albumin (20 mg/ml BSA reacted for 3 weeks with 180 mg/ml glucose at 37° C.) in a final volume of 100 μl. The irradiation was performed in a 96 well plate without lid, with UVA lamp (Ultra-lum UVA-28T at 6.4 mW/cm^2) for 2 h, delivering a total energy of […]. Following irradiation 10 μl of the reaction mixture was mixed with 2 μl of loading buffer, resolved in 1% agarose gel (at 90V for 20 min) and stained with ethidium bromide ([…]). The intact (supercoiled) lower (faster-migrating) band and the UVA-damaged (uncoiled) higher (slower-migrating) band were visualized using Hoefer transilluminator. Photographs of the gels were then processed using NIH ImageJ and ratio of unwound (damaged) to supercoiled (intact) bands was calculated and used to assess the protective activity of test materials.
# [5] = Antioxidant power / quenching: singlet oxygen
# Experimental: Separately, a study of the singlet oxygen quenching ability of Compound 1 and Compound 7 were evaluated.
# [6] = tested on: Fibroblasts; test: UVA-induced delayed formation of CPDs (dCPDs) in fibroblasts; format: cell-based; conditions: 25 μg/ml
# Experimental: as §2
# [7] = tested on: NOX; conditions: UVA; Fibroblasts; 50 μg/ml
# [8] = tested on: NOX; conditions: UVA; Keratinocytes; 50 μg/ml
# [9] = biological target: iNOS (Homo sapiens, UniProt P35228); test: Reduction of iNOS activity; format: biochemical; conditions: read-out: Reduction of iNOS activity, Amount used in μM (IC50) values)
# Text: Accordingly, an investigation was undertaken to assess the efficacy of compounds according to the present teaching as compared to compounds that are closely structurally related thereto in inhibiting NO product.
# [10] = Antioxidant power: peroxyl radicals
# [11] = Antioxidant power: hydroxyl radicals
# [12] = Antioxidant power: peroxynitrite
# [13] = Lipid peroxidation, squalene substrate; format: biochemical; conditions: Squalene used as a substrate
# [14] = Antioxidant power: super oxide anion
# Chain of iNOS (P35228 whole entry, species assumed): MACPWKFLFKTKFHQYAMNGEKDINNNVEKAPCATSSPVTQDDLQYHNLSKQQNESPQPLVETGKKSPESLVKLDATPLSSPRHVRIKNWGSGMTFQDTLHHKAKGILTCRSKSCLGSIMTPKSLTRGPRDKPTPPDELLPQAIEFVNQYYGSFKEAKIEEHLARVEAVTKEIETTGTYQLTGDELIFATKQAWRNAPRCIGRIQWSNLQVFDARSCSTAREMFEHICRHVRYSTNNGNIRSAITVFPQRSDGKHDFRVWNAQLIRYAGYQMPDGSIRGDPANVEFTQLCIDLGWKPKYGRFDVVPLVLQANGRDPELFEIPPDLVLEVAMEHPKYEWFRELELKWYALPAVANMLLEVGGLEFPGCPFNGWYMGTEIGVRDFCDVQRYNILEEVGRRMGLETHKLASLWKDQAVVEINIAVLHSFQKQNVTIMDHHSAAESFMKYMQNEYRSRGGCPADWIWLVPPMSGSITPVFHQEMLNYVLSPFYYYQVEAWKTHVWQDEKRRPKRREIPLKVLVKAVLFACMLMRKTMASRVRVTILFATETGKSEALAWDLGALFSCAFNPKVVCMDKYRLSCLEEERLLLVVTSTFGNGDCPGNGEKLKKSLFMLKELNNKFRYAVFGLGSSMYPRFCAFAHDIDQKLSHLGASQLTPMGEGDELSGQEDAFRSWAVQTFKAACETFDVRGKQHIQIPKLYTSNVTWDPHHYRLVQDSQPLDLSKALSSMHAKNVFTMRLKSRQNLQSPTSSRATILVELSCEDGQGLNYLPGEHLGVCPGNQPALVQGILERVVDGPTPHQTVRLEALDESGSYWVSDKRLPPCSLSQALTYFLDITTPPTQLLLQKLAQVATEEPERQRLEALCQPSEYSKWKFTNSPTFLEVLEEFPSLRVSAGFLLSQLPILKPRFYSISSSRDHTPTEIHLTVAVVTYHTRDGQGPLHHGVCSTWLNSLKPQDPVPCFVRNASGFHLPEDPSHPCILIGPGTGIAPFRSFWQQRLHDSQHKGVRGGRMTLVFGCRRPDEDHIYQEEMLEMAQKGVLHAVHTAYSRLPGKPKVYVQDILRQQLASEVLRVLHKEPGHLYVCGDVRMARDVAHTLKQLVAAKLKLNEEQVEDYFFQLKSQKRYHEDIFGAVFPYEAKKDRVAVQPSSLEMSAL
compound,measurement,setting,value
CCOC(=O)C(Cc1ccc(O)c(OC)c1)C(C)=O (centres unmarked) [Compound 2],UVB/% Reduction iCPDs vs. Control,[1],44%
same,UVA/% Reduction in iCPDs vs. Control,[2]; 25 μg/ml,26%
same,UVB/% Reduction iCPDs vs. Control,[2]; 25 μg/ml,25%
same,"UVA/% Reduction in dCPDs vs. control, 0 hr. (Reduction in iCPDs)",[3]; 0 hr.,^+0 hr.: ↓26%
same,"UVA/% Reduction in dCPDs vs. control, 1 hr.",[3]; 1 hr.,1 hr.: ↓13%
same,"UVA/% Reduction in dCPDs vs. control, 2 hr.",[3]; 2 hr.,2 hr.: ~0%
COc1cc(CC(C(C)=O)C(C)=O)cc(OC)c1OC [Compound 7],% DNA strand breaks,[4]; 0.03 μg/ml,33%
same,% DNA strand protection,[4]; 0.03 μg/ml,67%
same,% DNA strand breaks,[4]; 0.1 μg/ml,15%
same,% DNA strand protection,[4]; 0.1 μg/ml,85%
same,"Antioxidant Power, Singlet oxygen",[5],"6,359+ μmole Trolox Equivalent/gram"
same,Singlet oxygen quenching,[5]; ±10% error,"6,359 μMole Trolox Equivalent/g"
CCOC(=O)C(Cc1cc(OC)c(OC)c(OC)c1)C(C)=O (centres unmarked) [Compound 8],"UVA/% Reduction in dCPDs vs. control, 0 hr. (Reduction in iCPDs)","[6]; 0 hr., product incubated for 24 hrs. plus UVA irradiation",^+0 hr.: No effect
same,"UVA/% Reduction in dCPDs vs. control, 1 hr.","[6]; 1 hr., product incubated for 24 hrs. plus UVA irradiation",1 hr.: ↓35%
same,"UVA/% Reduction in dCPDs vs. control, 2 hr.","[6]; 2 hr., product incubated for 24 hrs. plus UVA irradiation",2 hr.: ↓52%
same,"UVA/% Reduction in dCPDs vs. control, 4 hr.","[6]; 4 hr., product incubated for 24 hrs. plus UVA irradiation",4 hr.: ↓32%
same,reduction of NOX activity,[7],−14%
same,UVA/% Reduction in iCPDs vs. Control,[2]; 50 μg/ml,42%^+
same,reduction of NOX activity,[8],−17%
"COc1cc(CCC(C)=O)ccc1O [Zingerone, reference compound]",UVA/% Reduction in iCPDs vs. Control,[1]; UVA,No effect
same,UVB/% Reduction iCPDs vs. Control,[1],No effect
same,UVA/% Reduction in dCPDs vs. control,[6]; time not given,No effect
same,IC50,[9],364 µM
same,UVA/% Reduction in iCPDs vs. Control,[2]; 25 μg/ml,No effect
same,UVB/% Reduction iCPDs vs. Control,[2]; 25 μg/ml,No effect
same,UVA/% Reduction in dCPDs vs. control,[3]; time not given,No effect
Tocopherol,"Antioxidant Power, Peroxyl radicals",[10],813 μmole Trolox Equivalent/gram
same,"Antioxidant Power, Hydroxyl radicals",[11],Not detected
same,"Antioxidant Power, Peroxynitrite",[12],1 μmole Trolox Equivalent/gram
same,Lipid peroxidation IC50 value,[13],30 µg/mL
same,"Antioxidant Power, Singlet oxygen",[5],"1,110 μmole Trolox Equivalent/gram"
same,"Antioxidant Power, Super oxide anion",[14],Not detected
